# ± gives the standard deviation of the averaged measurements.
# Compound: C[C@]1(O)C[C@@H](c2nc(-c3ccc4ccc(-c5ccccc5)nc4c3)c3c(N)nccn32)C1 [OSI-906]
# Assay: surviving fraction relative to DMSO-only wells; higher = less growth inhibition
# Details: 1000 nM; exposure time: 5 days
# Procedure, shortened: (§1)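 Inhibitors were tested at 0.5, 1, 5, 10, 50, 100, 500 and 1000 nM, applied continuously for five days beginning 24 hours after log-phase tumour cells were seeded at 250–500 per well in 384-well plates. CellTiter-Glo luminescence served as the viability measure, expressed as surviving fraction against the median of DMSO-only wells. Each line, screened three times, was kept only with replicate Pearson r >0.7 and median Z' >0.3.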
row,Test System,surviving fraction
1,ASKA SYNOVIAL,0.97 ± 0.029

# Compound: Cc1ccc(-c2cc(C(F)(F)F)nn2-c2ccc(S(N)(=O)=O)cc2)cc1 [CELECOXIB]
# Assay: as above
# Details: 0.5 nM; exposure time: 5 days
# Procedure, shortened: as §1
row,Test System,surviving fraction
1,JURKAT HAEMATOPOIETIC AND LYMPHOID TISSUE,1.03 ± 0.036
2,SJSA1 BONE,1.15 ± 0.061
3,YAMATO SYNOVIAL,1.3 ± 0.17
4,C33A CERVIX,0.897 ± 0.037
5,PCI30 HEADNECK,1.02 ± 0.095
6,SCC003 HEADNECK,1.07 ± 0.033
7,HUO3N1 BONE,1.03 ± 0.04
8,T47D BREAST,1.08 ± 0.026
9,NOS1 BONE,1.18 ± 0.12
10,HELA CERVIX,1.09 ± 0.049
11,NY BONE,0.989 ± 0.03
12,CASKI CERVIX,0.944 ± 0.024
13,BT549 BREAST,1.02 ± 0.08
14,COLO320DM LARGE INTESTINE,1.12 ± 0.18
15,MDAMB361 BREAST,0.857 ± 0.13
16,HOSMNG BONE,0.941 ± 0.06
17,A549 LUNG,1.04 ± 0.039
18,CAL51 BREAST,1.03 ± 0.023
19,OSHN BONE,1.099 ± 0.0076
20,MCF7 BREAST,0.933 ± 0.053
21,HT1080 SOFT TISSUE,1.039 ± 0.0011

row,Test System,surviving fraction
1,MDAMB157 BREAST,0.92 ± 0.089
2,143B BONE,0.999 ± 0.011
3,SIHA CERVIX,1.08 ± 0.065
4,MDAMB134 BREAST,0.969 ± 0.016
5,SG32 HEADNECK,1.37 ± 0.15
6,NCIH441 LUNG,1.16 ± 0.019
7,CCK81 LARGE INTESTINE,0.841 ± 0.1
8,SG31 HEADNECK,1.27 ± 0.19
9,OS25HAL BONE,1.03 ± 0.017
10,HCC1954 BREAST,1.05 ± 0.12
11,VP229 BREAST,1.15 ± 0.15
12,22RV1 PROSTATE,1.02 ± 0.059
13,MDAMB231 BREAST,0.973 ± 0.02
14,RDES SOFT TISSUE,1.11 ± 0.11
15,LM7 BONE,0.979 ± 0.059
16,HMT3552 BREAST,1.07 ± 0.057
17,SNU475 LIVER,1.06 ± 0.039
18,HCC38 BREAST,1.17 ± 0.23
19,HU09 BONE,1 ± 0.092
20,ASKA SYNOVIAL,1.16 ± 0.098

# Same assay, conditions: 1 nM; exposure time: 5 days
row,Test System,surviving fraction
1,JURKAT HAEMATOPOIETIC AND LYMPHOID TISSUE,1.05 ± 0.032
2,SJSA1 BONE,1.68 ± 0.074
3,YAMATO SYNOVIAL,1.38 ± 0.056
4,C33A CERVIX,0.951 ± 0.11
5,PCI30 HEADNECK,1 ± 0.057
6,SCC003 HEADNECK,1.1 ± 0.049
7,HUO3N1 BONE,0.998 ± 0.039
8,T47D BREAST,1.05 ± 0.081
9,NOS1 BONE,1.15 ± 0.34
10,HELA CERVIX,1.11 ± 0.047
11,NY BONE,1.04 ± 0.041
12,CASKI CERVIX,0.881 ± 0.056
13,BT549 BREAST,1.06 ± 0.088
14,COLO320DM LARGE INTESTINE,1.12 ± 0.17
15,MDAMB361 BREAST,0.895 ± 0.013
16,HOSMNG BONE,0.968 ± 0.093
17,A549 LUNG,1.05 ± 0.025
18,CAL51 BREAST,1.04 ± 0.056
19,OSHN BONE,1.091 ± 0.0078
20,MCF7 BREAST,0.922 ± 0.05
21,HT1080 SOFT TISSUE,1.06 ± 0.011

row,Test System,surviving fraction
1,MDAMB157 BREAST,0.989 ± 0.093
2,143B BONE,1.04 ± 0.03
3,SIHA CERVIX,1 ± 0.064
4,MDAMB134 BREAST,0.898 ± 0.054
5,SG32 HEADNECK,1.15 ± 0.063
6,NCIH441 LUNG,1.19 ± 0.043
7,CCK81 LARGE INTESTINE,0.867 ± 0.052
8,SG31 HEADNECK,1.4 ± 0.5
9,OS25HAL BONE,1.02 ± 0.033
10,HCC1954 BREAST,1.07 ± 0.076
11,VP229 BREAST,1.21 ± 0.19
12,22RV1 PROSTATE,1.06 ± 0.082
13,MDAMB231 BREAST,1 ± 0.015
14,RDES SOFT TISSUE,1.16 ± 0.14
15,LM7 BONE,0.963 ± 0.023
16,HMT3552 BREAST,1.07 ± 0.07
17,SNU475 LIVER,1.08 ± 0.054
18,HCC38 BREAST,1.4 ± 0.23
19,HU09 BONE,0.961 ± 0.061
20,ASKA SYNOVIAL,1.15 ± 0.074

# Same assay, conditions: 5 nM; exposure time: 5 days
row,Test System,surviving fraction
1,JURKAT HAEMATOPOIETIC AND LYMPHOID TISSUE,1.03 ± 0.017
2,SJSA1 BONE,1.6 ± 0.048
3,YAMATO SYNOVIAL,1.4 ± 0.12
4,C33A CERVIX,1.01 ± 0.083
5,PCI30 HEADNECK,1.07 ± 0.044
6,SCC003 HEADNECK,1.05 ± 0.034
7,HUO3N1 BONE,1.06 ± 0.057
8,T47D BREAST,1.08 ± 0.043
9,NOS1 BONE,1.16 ± 0.071
10,HELA CERVIX,1.05 ± 0.058
11,NY BONE,1.09 ± 0.038
12,CASKI CERVIX,0.952 ± 0.029
13,BT549 BREAST,1.07 ± 0.16
14,COLO320DM LARGE INTESTINE,1.15 ± 0.075
15,MDAMB361 BREAST,0.897 ± 0.12
16,HOSMNG BONE,0.923 ± 0.047
17,A549 LUNG,1.05 ± 0.045
18,CAL51 BREAST,0.991 ± 0.026
19,OSHN BONE,1.13 ± 0.018
20,MCF7 BREAST,0.938 ± 0.013
21,HT1080 SOFT TISSUE,1.038 ± 0.0067

row,Test System,surviving fraction
1,MDAMB157 BREAST,0.993 ± 0.048
2,143B BONE,1.07 ± 0.057
3,SIHA CERVIX,1.08 ± 0.033
4,MDAMB134 BREAST,0.881 ± 0.084
5,SG32 HEADNECK,1.29 ± 0.13
6,NCIH441 LUNG,1.1 ± 0.11
7,CCK81 LARGE INTESTINE,0.744 ± 0.14
8,SG31 HEADNECK,1.11 ± 0.21
9,OS25HAL BONE,1.06 ± 0.021
10,HCC1954 BREAST,1.39 ± 0.077
11,VP229 BREAST,1.21 ± 0.12
12,22RV1 PROSTATE,0.996 ± 0.088
13,MDAMB231 BREAST,0.985 ± 0.018
14,RDES SOFT TISSUE,1.19 ± 0.069
15,LM7 BONE,1.06 ± 0.05
16,HMT3552 BREAST,1.09 ± 0.026
17,SNU475 LIVER,1.02 ± 0.03
18,HCC38 BREAST,1.33 ± 0.23
19,HU09 BONE,1.08 ± 0.027
20,ASKA SYNOVIAL,1.2 ± 0.05

# Same assay, conditions: 10 nM; exposure time: 5 days
row,Test System,surviving fraction
1,JURKAT HAEMATOPOIETIC AND LYMPHOID TISSUE,1.05 ± 0.029
2,SJSA1 BONE,1.54 ± 0.045
3,YAMATO SYNOVIAL,1.47 ± 0.11
4,C33A CERVIX,0.954 ± 0.037
5,PCI30 HEADNECK,1.07 ± 0.046
6,SCC003 HEADNECK,1.06 ± 0.027
7,HUO3N1 BONE,1.08 ± 0.061
8,T47D BREAST,1.08 ± 0.035
9,NOS1 BONE,1.25 ± 0.051
10,HELA CERVIX,1.05 ± 0.039
11,NY BONE,1.08 ± 0.022
12,CASKI CERVIX,0.93 ± 0.055
13,BT549 BREAST,1.24 ± 0.062
14,COLO320DM LARGE INTESTINE,1.12 ± 0.15
15,MDAMB361 BREAST,0.896 ± 0.081
16,HOSMNG BONE,0.879 ± 0.11
17,A549 LUNG,1.05 ± 0.029
18,CAL51 BREAST,0.998 ± 0.08
19,OSHN BONE,1.1 ± 0.019
20,MCF7 BREAST,0.927 ± 0.035

row,Test System,surviving fraction
1,HT1080 SOFT TISSUE,1.05 ± 0.014
2,MDAMB157 BREAST,0.967 ± 0.045
3,143B BONE,1.05 ± 0.0021
4,MDAMB134 BREAST,0.913 ± 0.083
5,SG32 HEADNECK,1.18 ± 0.26
6,NCIH441 LUNG,1.11 ± 0.035
7,CCK81 LARGE INTESTINE,0.819 ± 0.059
8,SG31 HEADNECK,1.11 ± 0.25
9,OS25HAL BONE,1.07 ± 0.022
10,HCC1954 BREAST,1.27 ± 0.065
11,VP229 BREAST,1.12 ± 0.13
12,22RV1 PROSTATE,1.03 ± 0.025
13,MDAMB231 BREAST,1 ± 0.015
14,RDES SOFT TISSUE,1.11 ± 0.077
15,LM7 BONE,1.1 ± 0.086
16,HMT3552 BREAST,1.11 ± 0.038
17,SNU475 LIVER,1.05 ± 0.033
18,HCC38 BREAST,1.36 ± 0.25
19,HU09 BONE,1.03 ± 0.13

# From the supplement of paper PMC6045584
